Read-outs that look alike come from different tables or passages of the source.
Tests used:
[1] = molecular target: T1, BTK (Homo sapiens, UniProt Q06187); test: In Vitro BTK Kinase Assay: Btk-PolyGAT-LS Assay; assay type: biochemical; conditions: active BTK enzyme 0.25 nM, polyGAT 100 nM, 30 minutes, TRF readout; read-out: In Vitro BTK Kinase Assay IC50 Score
T1 construct: purchased Upstate 14-552
Method in brief: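 Active BTK at 0.25 nM phosphorylated 100 nM fluorescein-polyGAT peptide at 10 μM ATP for 30 minutes. Buffer was Tris pH 7.5 with MgCl2, DTT, Triton X-100 and casein, and reactions were stopped with EDTA. Phospho-peptide was detected by Tb-PY20 antibody TR-FRET, and IC50 came from a four-parameter fit normalized to DMSO and EDTA controls.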

[2] = system: CD69 expression on CD19+ B cells in human whole blood; test: In Vitro whole blood CD69 Assay; assay type: cell-based; conditions: B-cell, read-out: In Vitro HWB CD69 Assay IC50 Score
Method in brief: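 Heparinized healthy-donor human whole blood was preincubated with compound (0.1% DMSO) for 30 min at 37 °C. Stimulation used 0.1 µg/mL anti-IgD-dextran or 20 µg/mL rabbit F(ab′)2 anti-IgD for 18–22 h at 37 °C. CD69 on gated CD19+ B cells was then measured by flow cytometry.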

[3] = human heparinized whole blood, anti-human IgD stimulation overnight, CD19+ B cells, flow cytometry

T1 sequence (Q06187 whole entry): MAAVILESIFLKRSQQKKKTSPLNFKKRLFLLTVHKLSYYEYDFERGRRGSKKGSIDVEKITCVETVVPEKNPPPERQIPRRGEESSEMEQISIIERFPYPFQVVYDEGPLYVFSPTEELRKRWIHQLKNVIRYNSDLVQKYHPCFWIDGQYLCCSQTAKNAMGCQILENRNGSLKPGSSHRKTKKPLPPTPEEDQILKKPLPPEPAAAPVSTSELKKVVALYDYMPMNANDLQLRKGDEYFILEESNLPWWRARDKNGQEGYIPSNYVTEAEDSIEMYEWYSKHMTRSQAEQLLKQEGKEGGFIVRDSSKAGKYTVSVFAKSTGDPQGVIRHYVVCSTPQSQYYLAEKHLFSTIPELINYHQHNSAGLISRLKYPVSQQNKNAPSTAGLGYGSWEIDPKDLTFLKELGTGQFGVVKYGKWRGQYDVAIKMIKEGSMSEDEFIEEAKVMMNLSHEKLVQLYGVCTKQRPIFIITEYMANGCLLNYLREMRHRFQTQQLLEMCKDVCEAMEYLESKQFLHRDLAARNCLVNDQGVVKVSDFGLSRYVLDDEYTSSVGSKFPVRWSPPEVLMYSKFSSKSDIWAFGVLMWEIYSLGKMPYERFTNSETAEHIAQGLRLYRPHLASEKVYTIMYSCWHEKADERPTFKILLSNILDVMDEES

With `Cn1cc(-c2cc3nccn3c(-c3ccc(CNC(=O)c4nnc(C(C)(C)C)o4)cc3)n2)cn1` [Example 61, 5-(tert-butyl)-N-(4-(7-(1-methyl-1H-pyrazol-4-yl)imidazo[1,2-c]pyrimidin-5-yl)benzyl)-1,3,4-oxadiazole-2-carboxamide] the IC50 [1] was 0.01 to 1 µM and the IC50 [2, 3] was 1 to 10 µM.
`Cn1cc(-c2cc3nccn3c(-c3ccc(CNC(=O)c4nc(C5(CF)CC5)no4)cc3)n2)cn1` [Example 63, 3-(1-(fluoromethyl)cyclopropyl)-N-(4-(7-(1-methyl-1H-pyrazol-4-yl)imidazo[1,2-c]pyrimidin-5-yl)benzyl)-1,2,4-oxadiazole-5-carboxamide] showed an IC50 [1] of 0.001 to 0.01 µM and an IC50 ([2]; Homo sapiens) of 1 to 10 µM.
With `Cn1cc(-c2cc3nccn3c(-c3ccc(CNC(=O)c4nc(C(C)(C)C)no4)cc3)n2)cn1` [Example 64, 3-(tert-butyl)-N-(4-(7-(1-methyl-1H-pyrazol-4-yl)imidazo[1,2-c]pyrimidin-5-yl)benzyl)-1,2,4-oxadiazole-5-carboxamide] the IC50 [1] was < 0.001 µM and the IC50 [2, 3] was < 1 µM.
`Cc1cc(-c2cc(-c3cnn(C)c3)cn3nccc23)ccc1CNC(=O)c1noc(C2(C)CC2)n1` [Example 65, N-(2-methyl-4-(6-(1-methyl-1H-pyrazol-4-yl)pyrazolo[1,5-a]pyridin-4-yl)benzyl)-5-(1-methylcyclopropyl)-1,2,4-oxadiazole-3-carboxamide] was tested, and the IC50 [1] was < 0.001 µM and the IC50 ([2]; Homo sapiens) was < 1 µM.
With `Cc1cc(-c2cc(-c3cnn(C)c3)cn3nccc23)ccc1CNC(=O)c1cn(C(C)(C)C)nn1` [Example 66, 1-(tert-butyl)-N-(2-methyl-4-(6-(1-methyl-1H-pyrazol-4-yl)pyrazolo[1,5-a]pyridin-4-yl)benzyl)-1H-1,2,3-triazole-4-carboxamide] the IC50 [1] was < 0.001 µM and the IC50 [2, 3] was < 1 µM.
For `Cn1cc(-c2cc(-c3ccc(CNC(=O)c4noc(C5(C)CC5)n4)c(F)c3)c3ccnn3c2)cn1` [Example 67, N-(2-fluoro-4-(6-(1-methyl-1H-pyrazol-4-yl)pyrazolo[1,5-a]pyridin-4-yl)benzyl)-5-(1-methylcyclopropyl)-1,2,4-oxadiazole-3-carboxamide], the IC50 [1] was < 0.001 µM and the IC50 ([2]; Homo sapiens) was < 1 µM.
`Cn1cc(-c2cc(-c3ccc(CNC(=O)c4noc(C(C)(C)C)n4)c(F)c3)c3ccnn3c2)cn1` [Example 68, 5-(tert-butyl)-N-(2-fluoro-4-(6-(1-methyl-1H-pyrazol-4-yl)pyrazolo[1,5-a]pyridin-4-yl)benzyl)-1,2,4-oxadiazole-3-carboxamide] was tested, and the IC50 [1] was < 0.001 µM and the IC50 ([2]; Homo sapiens) was < 1 µM.
With `Cn1cc(-c2cc(-c3ccc(CNC(=O)c4cn(C(C)(C)C)nn4)c(F)c3)c3ccnn3c2)cn1` [Example 69, 1-(tert-butyl)-N-(2-fluoro-4-(6-(1-methyl-1H-pyrazol-4-yl)pyrazolo[1,5-a]pyridin-4-yl)benzyl)-1H-1,2,3-triazole-4-carboxamide] the IC50 [1] was < 0.001 µM and the IC50 [2, 3] was < 1 µM.
With `Cn1cc(-c2cc(-c3ccc(CNC(=O)c4ccn(C(C)(C)C)n4)c(F)c3)c3ccnn3c2)cn1` [Example 70, 1-(tert-butyl)-N-(2-fluoro-4-(6-(1-methyl-1H-pyrazol-4-yl)pyrazolo[1,5-a]pyridin-4-yl)benzyl)-1H-pyrazole-3-carboxamide] the IC50 [1] was 0.001 to 0.01 µM and the IC50 [2, 3] was 1 to 10 µM.
With `Cn1cc(-c2cc(-c3ccc(CNC(=O)c4nc(C(C)(C)CF)no4)c(F)c3)c3ccnn3c2)cn1` [Example 71, 3-(1-fluoro-2-methylpropan-2-yl)-N-(2-fluoro-4-(6-(1-methyl-1H-pyrazol-4-yl)pyrazolo[1,5-a]pyridin-4-yl)benzyl)-1,2,4-oxadiazole-5-carboxamide] the IC50 [1] was < 0.001 µM and the IC50 [2, 3] was < 1 µM.
Compound `Cn1cc(-c2cn3ncnc3c(N3CCC(CNC(=O)c4nnn(C(C)(C)C)n4)CC3)n2)cn1` [Example 72, 2-(tert-butyl)-N-((1-(6-(1-methyl-1H-pyrazol-4-yl)-[1,2,4]triazolo[1,5-a]pyrazin-8-yl)piperidin-4-yl)methyl)-2H-tetrazole-5-carboxamide] has an IC50 [1] of 0.001 to 0.01 µM and an IC50 [2, 3] of 1 to 10 µM.
`Cn1cc(-c2cn3ncnc3c(N3CCC(CNC(=O)c4noc(C(C)(C)C)n4)CC3)n2)cn1` [Example 73, 5-(tert-butyl)-N-((1-(6-(1-methyl-1H-pyrazol-4-yl)-[1,2,4]triazolo[1,5-a]pyrazin-8-yl)piperidin-4-yl)methyl)-1,2,4-oxadiazole-3-carboxamide] showed an IC50 [1] of 0.001 to 0.01 µM and an IC50 [2, 3] of 1 to 10 µM.
Work on `Cn1cc(-c2cn3ncnc3c(N3CCC(CNC(=O)c4cn(C(C)(C)C)nn4)CC3)n2)cn1` [Example 74, 1-(tert-butyl)-N-((1-(6-(1-methyl-1H-pyrazol-4-yl)-[1,2,4]triazolo[1,5-a]pyrazin-8-yl)piperidin-4-yl)methyl)-1H-1,2,3-triazole-4-carboxamide] yielded an IC50 [1] of 0.01 to 1 µM and an IC50 [2, 3] of 1 to 10 µM.
`Cn1cc(-c2cc(-c3ccc(CNC(=O)c4noc(C5(C)CC5)n4)cc3)n3cnnc3c2)cn1` [Example 76, N-(4-(7-(1-methyl-1H-pyrazol-4-yl)-[1,2,4]triazolo[4,3-a]pyridin-5-yl)benzyl)-5-(1-methylcyclopropyl)-1,2,4-oxadiazole-3-carboxamide] showed an IC50 [1] of 0.01 to 1 µM and an IC50 [2, 3] of 1 to 10 µM.
`Cc1cc(-c2nc(-c3cnn(C)c3)cc3nccn23)ccc1CNC(=O)c1noc(C(C)(C)C)n1` [Example 78, 5-(tert-butyl)-N-(2-methyl-4-(7-(1-methyl-1H-pyrazol-4-yl)imidazo[1,2-c]pyrimidin-5-yl)benzyl)-1,2,4-oxadiazole-3-carboxamide] was tested, and the IC50 [1] was < 0.001 µM and the IC50 [2, 3] was < 1 µM.
With `Cc1c(CNC(=O)c2noc(C(C)(C)C)n2)ccc(-c2nc(-c3cnn(C)c3)cc3nccn23)c1F` [Example 79, 5-(tert-butyl)-N-(3-fluoro-2-methyl-4-(7-(1-methyl-1H-pyrazol-4-yl)imidazo[1,2-c]pyrimidin-5-yl)benzyl)-1,2,4-oxadiazole-3-carboxamide] the IC50 [1] was < 0.001 µM and the IC50 [2, 3] was < 1 µM.
`Cc1cc(-c2nc(-c3cnn(C)c3)cn3nccc23)ccc1CNC(=O)c1noc(C(C)(C)C)n1` [Example 80, 5-(tert-butyl)-N-(2-methyl-4-(6-(1-methyl-1H-pyrazol-4-yl)pyrazolo[1,5-a]pyrazin-4-yl)benzyl)-1,2,4-oxadiazole-3-carboxamide] was tested, and the IC50 [1] was < 0.001 µM and the IC50 [2, 3] was < 1 µM.
`Cc1c(CNC(=O)c2noc(C(C)(C)C)n2)ccc(-c2nc(-c3cnn(C)c3)cn3nccc23)c1F` [Example 81, 5-(tert-butyl)-N-(3-fluoro-2-methyl-4-(6-(1-methyl-1H-pyrazol-4-yl)pyrazolo[1,5-a]pyrazin-4-yl)benzyl)-1,2,4-oxadiazole-3-carboxamide] was tested, and the IC50 [1] was < 0.001 µM and the IC50 [2, 3] was < 1 µM.
`CC(C)(C)c1nc(C(=O)NCc2ccc(-c3nccn4nccc34)cc2Cl)no1` [Example 82, 5-(tert-butyl)-N-(2-chloro-4-(pyrazolo[1,5-a]pyrazin-4-yl)benzyl)-1,2,4-oxadiazole-3-carboxamide] showed an IC50 [1] of 0.001 to 0.01 µM and an IC50 [2, 3] of 1 to 10 µM.
With `Cn1cc(-c2cn3nccc3c(-c3ccc(CNC(=O)c4noc(C(C)(C)C)n4)cc3F)n2)cn1` [Example 83, 5-(tert-butyl)-N-(3-fluoro-4-(6-(1-methyl-1H-pyrazol-4-yl)pyrazolo[1,5-a]pyrazin-4-yl)benzyl)-1,2,4-oxadiazole-3-carboxamide] the IC50 [1] was 0.001 to 0.01 µM and the IC50 [2, 3] was < 1 µM.
For `Cn1cc(-c2cn3nccc3c(-c3cc(F)c(CNC(=O)c4noc(C(C)(C)C)n4)cc3F)n2)cn1` [Example 84, 5-(tert-butyl)-N-(2,5-difluoro-4-(6-(1-methyl-1H-pyrazol-4-yl)pyrazolo[1,5-a]pyrazin-4-yl)benzyl)-1,2,4-oxadiazole-3-carboxamide], the IC50 [1] was < 0.001 µM and the IC50 [2, 3] was < 1 µM.
In the case of `Cc1cc(-c2nccn3nccc23)ccc1CNC(=O)c1noc(C(C)(C)C)n1` [Example 85, 5-(tert-butyl)-N-(2-methyl-4-(pyrazolo[1,5-a]pyrazin-4-yl)benzyl)-1,2,4-oxadiazole-3-carboxamide], the IC50 [1] is reported as 0.001 to 0.01 µM and the IC50 [2, 3] is reported as 1 to 10 µM.
With `Cn1cc(-c2cn3nccc3c(-c3ccc(CNC(=O)c4noc(C(C)(C)C)n4)c(C(F)F)c3)n2)cn1` [Example 86, 5-(tert-butyl)-N-(2-(difluoromethyl)-4-(6-(1-methyl-1H-pyrazol-4-yl)pyrazolo[1,5-a]pyrazin-4-yl)benzyl)-1,2,4-oxadiazole-3-carboxamide] the IC50 [1] was < 0.001 µM and the IC50 [2, 3] was < 1 µM.
In the case of `Cn1cc(-c2cn3nccc3c(-c3ccc(CNC(=O)c4nnn(C(C)(C)C)n4)c(F)c3F)n2)cn1` [Example 87, 2-(tert-butyl)-N-(2,3-difluoro-4-(6-(1-methyl-1H-pyrazol-4-yl)pyrazolo[1,5-a]pyrazin-4-yl)benzyl)-2H-tetrazole-5-carboxamide], the IC50 [1] is reported as < 0.001 µM and the IC50 [2, 3] is reported as < 1 µM.
With `Cn1cc(-c2cn3nccc3c(-c3ccc(CNC(=O)c4noc(C(C)(C)C)n4)c(F)c3F)n2)cn1` [Example 88, 5-(tert-butyl)-N-(2,3-difluoro-4-(6-(1-methyl-1H-pyrazol-4-yl)pyrazolo[1,5-a]pyrazin-4-yl)benzyl)-1,2,4-oxadiazole-3-carboxamide] the IC50 [1] was < 0.001 µM and the IC50 [2, 3] was < 1 µM.
In the case of `Cn1cc(-c2cn3nccc3c(-c3ccc(CNC(=O)c4nc(C(C)(C)C)no4)c(F)c3F)n2)cn1` [Example 89, 3-(tert-butyl)-N-(2,3-difluoro-4-(6-(1-methyl-1H-pyrazol-4-yl)pyrazolo[1,5-a]pyrazin-4-yl)benzyl)-1,2,4-oxadiazole-5-carboxamide], the IC50 [1] is reported as < 0.001 µM and the IC50 ([2]; Homo sapiens) is reported as < 1 µM.
